Some test systems named below: IGROV-1; K562; M14; HL-60; HCT-15; SNB-19; SN12C; CCRF-CEM; COLO 205; SK-MEL-5; HCT-116; TK-10; NCI-H23; 786-0; RXF 393; SNB-75.
Holding throughout (assay): NCI-60 cell line screen, 48 h

Structures are written as SMILES.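 Briefly, cells in 96-well plates were exposed to five compound concentrations for 48 h, and endpoints were estimated by linear interpolation. Abbreviation: GI50, concentration required for 50% inhibition of growth.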 Active and inactive are the calls of the source. Rule as the data show it: active = GI50 up to about 1.1 µM and inactive = higher. Where only a bound is given, the exact number is not on record here.

Consider `O=C1CCC(=O)C(C(=O)CCC(=O)Nc2ccc(Cl)cc2)C1` (stereo not given), for which the GI50 in the assay on IGROV-1 was > 100 µM (inactive); with K562 it was > 100 µM (inactive); in the assay on M14, > 100 µM (inactive); in the assay with HL-60, > 100 µM (inactive); in the assay on HCT-15 it was above 100 µM; with SNB-19, > 100 µM (inactive). Moreover, the GI50 in the assay with SN12C, in the assay on CCRF-CEM, in the assay on COLO 205, with SK-MEL-5, with HCT-116 and in the assay with TK-10 was > 100 µM (inactive) each time. Also, the GI50 with NCI-H23 and with 786-0 was > 100 µM (inactive) each time.

Take `C/N=c1\ss/c(=N\C(=S)N(C)C)n1C1CCCCC1`: the GI50 in the assay with IGROV-1 was > 31.6 µM (inactive); in the assay with K562, > 31.6 µM (inactive); in the assay on M14, > 10 µM (inactive); with RXF 393, > 31.6 µM (inactive); in the assay on HL-60, > 100 µM (inactive); with HCT-15, above 31.6 µM. Further, the GI50 in the assay on SNB-19 is > 31.6 µM (inactive); in the assay on SNB-75, > 10 µM (inactive); with SN12C it was > 31.6 µM (inactive); with CCRF-CEM, > 31.6 µM (inactive); in the assay on COLO 205, > 31.6 µM (inactive); in the assay on SK-MEL-5, > 31.6 µM (inactive). Also, the GI50 with HCT-116 is > 10 µM (inactive); in the assay with TK-10, > 31.6 µM (inactive); in the assay on NCI-H23, > 31.6 µM (inactive); in the assay on 786-0, > 10 µM (inactive).

In the case of `N#CC1(C#N)C(c2ccc(C3C(C#N)(C#N)C3(C#N)C#N)cc2)C1(C#N)C#N`, the GI50 was > 100 µM (inactive) with IGROV-1; > 100 µM (inactive) in the assay on K562; > 100 µM (inactive) with M14; > 100 µM (inactive) in the assay on RXF 393; > 100 µM (inactive) with HL-60; above 100 µM in the assay with HCT-15. The GI50 in the assay with SNB-19, in the assay with SNB-75, in the assay on SN12C, in the assay with CCRF-CEM, with COLO 205 and with SK-MEL-5 was > 100 µM (inactive) throughout. Also, the GI50 with TK-10, in the assay on NCI-H23 and in the assay on 786-0 was > 100 µM (inactive) throughout.

On to `O=C1OC(c2ccccc2)=N/C1=C\c1c(O)cc(O)cc1O`, for which the GI50 in the assay on IGROV-1 is > 100 µM (inactive); with K562, 32.4 µM (inactive); in the assay on M14, 60.3 µM (inactive); with RXF 393, > 100 µM (inactive); in the assay with HCT-15, 38 µM; in the assay with SNB-19, > 100 µM (inactive). Besides, the GI50 in the assay on SNB-75 was > 100 µM (inactive); in the assay on SN12C, > 100 µM (inactive); in the assay with CCRF-CEM, > 100 µM (inactive); in the assay with COLO 205, > 100 µM (inactive); in the assay with SK-MEL-5, > 100 µM (inactive); in the assay with HCT-116, 96.6 µM (inactive). Besides, the GI50 in the assay with TK-10, with NCI-H23 and with 786-0 was > 100 µM (inactive) throughout.

Consider `Oc1cc(Cl)ncn1`, for which the GI50 with IGROV-1 is > 100 µM (inactive); in the assay with K562 it was > 100 µM (inactive); in the assay with M14 it was > 100 µM (inactive); in the assay with HL-60 it was > 100 µM (inactive); in the assay with HCT-15, above 100 µM; in the assay on SNB-19, > 100 µM (inactive). For the same compound, the GI50 with SNB-75, in the assay with SN12C, in the assay with CCRF-CEM, in the assay on COLO 205, in the assay with SK-MEL-5 and in the assay with HCT-116 was > 100 µM (inactive) throughout. For the same compound, the GI50 in the assay on TK-10, in the assay on NCI-H23 and with 786-0 was > 100 µM (inactive) each time.

These data come from ChEMBL document CHEMBL1201862, “PubChem BioAssay data set” (2004).
